# Measured values reported in US6855325B1, “Use of hypo-osmotic saline solutions and medicine based on said solutions” (Laboratoires GOEMAR S.A., priority 1999, dated 2005).
# “Also recorded” adds a separate entry of the source.
# What was measured:
# interleukine IL-8 = assay: release of interleukine IL-8 in cultures of keratinocytes under the influence of MCK medium; assay type: cell-based, human; settings: 4 hours incubation; saline solutions and physiological serum without dilution, dexamethasone 10 μM in MCK; control MCK = 100
# Excerpt: Then the ability of the hypoosmotic saline solutions used according to the invention to prevent and to limit the release under the influence of certain diseases or certain pro-inflammatory agents of the chemical mediators responsible for the starting of the cutaneous inflammatory phenomena has been examined.
# The tested chemical mediator was interleukine IL-8.
# The pro-inflammatory agent was consisting of the MCK culture medium which appears to be at the origin of a strong release of interleukine IL-8 in cultures of keratinocytes.
# The procedure was similar to that used in the above disclosed tests concerning the estimation of the cytotoxicity of the various tested products.
# These products were the same.
# The duration of the incubation was also equal to 4 hours.
# Under the influence of the MCK medium, the release of interleukine IL-8 was 100 pg/mg of proteins; in that same medium determination has been carried out of the amounts of interleukine IL-8 released in the presence of the six tested products, i.e. on the one hand, the products J, I, H, K as well as physiological serum which were used without dilution and, on the other hand, dexamethasone which has been used at the rate of 10 μM in the MCK medium.
# [1] = system: normal human epidermic keratinocytes; assay: cytotoxic effect: percentage of proteins remaining in keratinocytes after 4 hours of incubation; assay type: cell-based; settings: 4 hours incubation
# Protocol: For the examination of the toxicity, normal human epidermic keratinocytes were used which were taken from epidermis samples; they consist especially in keratinocytes isolated from the remains of an operation of an abdominal plasty carried out on a person (patient No. 10020).
# These keratinocytes were cultivated at 37° C. in a culture medium intended for keratinocytes or MCK, i.e. the one which is marketed under the designation “SFM defined-keratinocyte medium” by the company GIBCO under a humid atmosphere containing 5% of CO2 until confluence of the monolayers.
# These six products were incubated during 4 hours in the cultures of the keratinocytes.
# Before the incubation, the cells, i.e. the keratinocytes, were rinsed with the tested products in order to eliminate any trace of culture medium.
# The saline solutions J, I, H, and K and the physiological serum were used without dilution.
# The dexamethasone has been tested at 10 μM in the medium MCK.
# The cultures of keratinocytes were incubated in the presence of the six products during 4 hours at 37° C., under a humid atmosphere containing 5% of CO2.
# The control cultures, incubated in the medium MCK in the absence of the six products, were carried out in parallel.
# All these trials were carried out three times. […]
smiles,measurement,setting,value
"C[C@@H]1C[C@H]2[C@@H]3CCC4=CC(=O)C=C[C@]4(C)[C@@]3(F)[C@@H](O)C[C@]2(C)[C@@]1(O)C(=O)CO [Dexamethasone, dexamethasone]",amounts of interleukine IL-8 released,interleukine IL-8,74 pg of IL-8/mg of proteins
same,cytotoxic effect with respect to keratinocytes (in words),[1],not cytotoxic; also recorded: very few cytotoxic
